Laboratory results: ChEMBL document CHEMBL1201862, “PubChem BioAssay data set” (2004)
Active and inactive are the calls of the source.

Legend:
INS1 [1] = assay: protection of INS-1E cells from cytokine death, dose response, ATP luminescence, dry powder (AID 488844); format: functional, cell-based; settings: Rattus norvegicus
Exodeoxyribonuclease V = Exodeoxyribonuclease V (Escherichia coli (strain K12), UniProt P04993+P07648+P08394); assay: E. coli RecBCD inhibitors, dose response, counter-screen for AddAB inhibitor project, absorbance, V66 E. coli, mutant T4 phage (AID 492957); format: functional, cell-based, Escherichia coli str. K-12 substr. MG1655
Exodeoxyribonuclease V, sequence (P04993 whole entry): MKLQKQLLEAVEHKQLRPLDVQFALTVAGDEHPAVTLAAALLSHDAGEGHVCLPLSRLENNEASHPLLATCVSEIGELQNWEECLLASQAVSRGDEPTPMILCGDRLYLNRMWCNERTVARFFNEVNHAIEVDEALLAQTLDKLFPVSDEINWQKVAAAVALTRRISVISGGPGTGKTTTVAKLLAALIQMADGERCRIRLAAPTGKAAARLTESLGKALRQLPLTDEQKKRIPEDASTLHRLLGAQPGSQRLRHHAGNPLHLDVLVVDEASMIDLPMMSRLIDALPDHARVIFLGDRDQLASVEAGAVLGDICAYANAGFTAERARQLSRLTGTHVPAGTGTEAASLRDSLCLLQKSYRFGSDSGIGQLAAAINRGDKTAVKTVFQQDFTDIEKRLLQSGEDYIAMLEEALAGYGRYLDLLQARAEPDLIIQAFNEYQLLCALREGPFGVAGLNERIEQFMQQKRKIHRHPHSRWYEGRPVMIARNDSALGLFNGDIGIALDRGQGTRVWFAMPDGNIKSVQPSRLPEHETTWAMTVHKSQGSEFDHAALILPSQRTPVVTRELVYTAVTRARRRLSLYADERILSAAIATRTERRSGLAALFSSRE
Exodeoxyribonuclease V, sequence (P07648 whole entry): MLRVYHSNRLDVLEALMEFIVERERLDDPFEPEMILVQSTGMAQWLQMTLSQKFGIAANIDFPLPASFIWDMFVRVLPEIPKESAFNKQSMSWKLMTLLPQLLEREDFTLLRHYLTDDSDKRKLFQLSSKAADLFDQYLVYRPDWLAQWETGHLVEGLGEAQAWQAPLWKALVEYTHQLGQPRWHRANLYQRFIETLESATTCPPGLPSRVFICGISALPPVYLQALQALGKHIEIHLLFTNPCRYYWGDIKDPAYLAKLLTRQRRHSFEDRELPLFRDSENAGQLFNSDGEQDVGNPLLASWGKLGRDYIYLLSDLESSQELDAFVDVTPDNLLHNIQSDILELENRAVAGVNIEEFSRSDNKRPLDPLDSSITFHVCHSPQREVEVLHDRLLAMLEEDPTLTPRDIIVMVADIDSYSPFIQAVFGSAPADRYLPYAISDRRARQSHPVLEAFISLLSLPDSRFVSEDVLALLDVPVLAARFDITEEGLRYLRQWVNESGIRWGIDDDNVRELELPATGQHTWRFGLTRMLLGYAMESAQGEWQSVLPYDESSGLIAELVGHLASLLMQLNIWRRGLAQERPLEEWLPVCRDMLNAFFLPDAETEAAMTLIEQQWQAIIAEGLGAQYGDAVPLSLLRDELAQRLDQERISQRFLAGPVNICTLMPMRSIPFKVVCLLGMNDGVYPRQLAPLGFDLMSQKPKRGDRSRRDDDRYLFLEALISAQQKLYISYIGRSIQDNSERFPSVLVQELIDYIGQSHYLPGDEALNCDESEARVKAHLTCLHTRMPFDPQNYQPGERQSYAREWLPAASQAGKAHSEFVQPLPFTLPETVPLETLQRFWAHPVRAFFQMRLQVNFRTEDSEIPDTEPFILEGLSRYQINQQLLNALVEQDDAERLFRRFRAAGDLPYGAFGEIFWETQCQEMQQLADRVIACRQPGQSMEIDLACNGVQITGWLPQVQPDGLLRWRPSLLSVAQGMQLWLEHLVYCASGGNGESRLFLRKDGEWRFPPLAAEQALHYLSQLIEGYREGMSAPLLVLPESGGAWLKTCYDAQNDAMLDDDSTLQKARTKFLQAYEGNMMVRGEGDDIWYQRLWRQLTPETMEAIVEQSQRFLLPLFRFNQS
Exodeoxyribonuclease V, sequence (P08394 whole entry): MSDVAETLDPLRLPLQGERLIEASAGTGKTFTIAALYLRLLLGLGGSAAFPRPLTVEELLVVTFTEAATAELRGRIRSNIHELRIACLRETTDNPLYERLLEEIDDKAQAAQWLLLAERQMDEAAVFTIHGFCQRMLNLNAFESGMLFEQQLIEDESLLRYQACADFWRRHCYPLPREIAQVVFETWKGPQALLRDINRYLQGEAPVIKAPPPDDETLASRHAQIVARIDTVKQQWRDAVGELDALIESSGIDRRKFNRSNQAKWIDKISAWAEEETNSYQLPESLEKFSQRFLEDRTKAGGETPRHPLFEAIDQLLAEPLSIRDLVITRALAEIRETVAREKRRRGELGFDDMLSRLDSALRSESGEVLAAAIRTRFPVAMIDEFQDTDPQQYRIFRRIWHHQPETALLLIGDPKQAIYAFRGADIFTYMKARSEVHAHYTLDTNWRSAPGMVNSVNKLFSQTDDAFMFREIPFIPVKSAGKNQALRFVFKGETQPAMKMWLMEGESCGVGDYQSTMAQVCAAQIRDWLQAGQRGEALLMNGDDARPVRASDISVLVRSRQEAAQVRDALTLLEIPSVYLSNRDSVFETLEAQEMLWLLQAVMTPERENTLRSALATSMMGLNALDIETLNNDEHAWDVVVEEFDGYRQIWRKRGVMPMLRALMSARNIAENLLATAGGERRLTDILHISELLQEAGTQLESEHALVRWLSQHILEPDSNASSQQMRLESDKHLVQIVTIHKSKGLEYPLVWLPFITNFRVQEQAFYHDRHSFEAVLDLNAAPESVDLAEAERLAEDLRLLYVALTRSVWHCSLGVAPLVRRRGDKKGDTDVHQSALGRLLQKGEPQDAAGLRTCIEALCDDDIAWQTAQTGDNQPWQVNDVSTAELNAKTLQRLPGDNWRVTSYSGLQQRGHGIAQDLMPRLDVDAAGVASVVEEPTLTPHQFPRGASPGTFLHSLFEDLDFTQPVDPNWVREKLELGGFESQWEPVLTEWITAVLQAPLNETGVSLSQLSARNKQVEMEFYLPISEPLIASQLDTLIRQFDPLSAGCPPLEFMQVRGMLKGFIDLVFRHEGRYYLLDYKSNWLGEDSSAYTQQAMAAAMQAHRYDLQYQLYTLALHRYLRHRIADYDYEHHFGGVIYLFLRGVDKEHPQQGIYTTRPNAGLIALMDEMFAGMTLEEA

[2] = Counterscreen for AddAB inhibitors: absorbance-based bacterial cell-based high throughput dose response assay for inhibitors of bacterial viability. [Related pubchem assays (depositor defined):AID435030, AID449728, AID449731, AID488942, AID488955, AID488956]; format: functional
HEK293 = assay: inhibitors of LMP1-driven NF-kB reporter, dose response, cell-based, HEK293, luciferase, cherry-pick (AID 588343); format: functional; settings: Homo sapiens
INS1 [3] = assay: beta cell apoptosis inhibitors, cytokine rescue, dose response, luminescence, retest (AID 449756); format: functional, cell-based; settings: Rattus norvegicus;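 further: cell death triggered by IL-1 beta plus TNF-alpha plus IFN-gamma mixture; protective hits raise ATP signal compared with cytokine alone wells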
[4] = molecular target: G-protein coupled receptor 55 (Homo sapiens, UniProt Q9Y2T6); assay: GPR55 antagonists blocking LPI-driven arrestin recruitment, primary screen, imaging, U2OS, beta-arrestin-GFP, LPI agonist (AID 2013); format: functional;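 further: antagonist potency measured as reduced agonist-driven arrestin aggregation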
G-protein coupled receptor 55, sequence (Q9Y2T6 whole entry): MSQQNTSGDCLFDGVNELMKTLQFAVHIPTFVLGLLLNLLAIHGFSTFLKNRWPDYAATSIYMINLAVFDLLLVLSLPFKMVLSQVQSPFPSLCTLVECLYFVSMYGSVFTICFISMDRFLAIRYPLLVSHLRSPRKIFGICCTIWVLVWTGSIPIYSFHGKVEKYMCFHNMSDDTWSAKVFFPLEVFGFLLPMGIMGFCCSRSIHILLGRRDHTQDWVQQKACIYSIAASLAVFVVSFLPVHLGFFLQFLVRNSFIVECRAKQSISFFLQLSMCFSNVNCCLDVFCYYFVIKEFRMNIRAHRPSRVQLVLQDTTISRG

[5] = molecular target: Eukaryotic translation initiation factor 4E (Mus musculus, UniProt P63073); assay: eIF4E–eIF4G protein interaction inhibitors, dose response, biochemical, TR-FRET (AID 855); format: functional;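 further: potency for disrupting eIF4E binding to eIF4GI seen as loss of FRET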
Eukaryotic translation initiation factor 4E, sequence (P63073 whole entry): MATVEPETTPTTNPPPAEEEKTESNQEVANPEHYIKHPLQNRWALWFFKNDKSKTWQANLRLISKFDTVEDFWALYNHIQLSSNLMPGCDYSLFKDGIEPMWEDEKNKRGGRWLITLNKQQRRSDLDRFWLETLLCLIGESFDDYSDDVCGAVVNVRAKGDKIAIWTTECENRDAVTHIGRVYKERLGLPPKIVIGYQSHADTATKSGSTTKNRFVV

SUMO-activating enzyme [6] = molecular target: T1, SUMO-activating enzyme (Homo sapiens, UniProt Q9UBT2); assay: inhibitors of in vitro SUMOylation cascade, primary screen, biochemical, HTRF, uHTS (AID 2006); format: protein-complex assay
T1 sequence (Q9UBE0 whole entry): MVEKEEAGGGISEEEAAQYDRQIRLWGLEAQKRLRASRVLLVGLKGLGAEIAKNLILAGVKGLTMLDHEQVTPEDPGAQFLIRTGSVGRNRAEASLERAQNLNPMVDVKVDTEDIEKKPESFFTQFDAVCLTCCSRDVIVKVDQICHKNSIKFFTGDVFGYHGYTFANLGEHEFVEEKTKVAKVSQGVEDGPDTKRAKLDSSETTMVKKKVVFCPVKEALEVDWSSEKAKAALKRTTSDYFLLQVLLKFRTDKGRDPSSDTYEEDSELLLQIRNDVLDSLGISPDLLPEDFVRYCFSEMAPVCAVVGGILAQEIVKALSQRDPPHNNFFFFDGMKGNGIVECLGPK
T1 sequence (Q9UBT2 whole entry): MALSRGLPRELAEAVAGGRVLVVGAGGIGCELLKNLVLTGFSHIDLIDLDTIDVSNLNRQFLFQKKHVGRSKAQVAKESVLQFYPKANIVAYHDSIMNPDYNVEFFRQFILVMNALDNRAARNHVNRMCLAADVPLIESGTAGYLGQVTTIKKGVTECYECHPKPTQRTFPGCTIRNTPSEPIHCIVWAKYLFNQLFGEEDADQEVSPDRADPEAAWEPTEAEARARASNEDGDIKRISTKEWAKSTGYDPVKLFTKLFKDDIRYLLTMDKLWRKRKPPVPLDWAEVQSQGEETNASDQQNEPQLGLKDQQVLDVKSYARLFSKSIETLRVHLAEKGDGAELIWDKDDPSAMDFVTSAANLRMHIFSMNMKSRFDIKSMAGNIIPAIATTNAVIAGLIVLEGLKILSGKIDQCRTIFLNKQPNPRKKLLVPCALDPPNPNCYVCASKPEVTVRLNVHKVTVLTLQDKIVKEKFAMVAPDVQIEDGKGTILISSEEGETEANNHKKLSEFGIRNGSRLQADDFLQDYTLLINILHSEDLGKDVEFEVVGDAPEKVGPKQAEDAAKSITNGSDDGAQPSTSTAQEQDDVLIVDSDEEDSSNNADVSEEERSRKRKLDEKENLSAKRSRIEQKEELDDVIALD

[7] = molecular target: T2, Rac GTPase-activating protein 1 (Homo sapiens, UniProt Q9H0H5); assay: MgcRacGAP GTPase-activating activity inhibitors, confirmation, biochemical, ADP Hunter fluorescence, primary and confirmatory (AID 624330); format: functional
T2 sequence (Q9H0H5 whole entry): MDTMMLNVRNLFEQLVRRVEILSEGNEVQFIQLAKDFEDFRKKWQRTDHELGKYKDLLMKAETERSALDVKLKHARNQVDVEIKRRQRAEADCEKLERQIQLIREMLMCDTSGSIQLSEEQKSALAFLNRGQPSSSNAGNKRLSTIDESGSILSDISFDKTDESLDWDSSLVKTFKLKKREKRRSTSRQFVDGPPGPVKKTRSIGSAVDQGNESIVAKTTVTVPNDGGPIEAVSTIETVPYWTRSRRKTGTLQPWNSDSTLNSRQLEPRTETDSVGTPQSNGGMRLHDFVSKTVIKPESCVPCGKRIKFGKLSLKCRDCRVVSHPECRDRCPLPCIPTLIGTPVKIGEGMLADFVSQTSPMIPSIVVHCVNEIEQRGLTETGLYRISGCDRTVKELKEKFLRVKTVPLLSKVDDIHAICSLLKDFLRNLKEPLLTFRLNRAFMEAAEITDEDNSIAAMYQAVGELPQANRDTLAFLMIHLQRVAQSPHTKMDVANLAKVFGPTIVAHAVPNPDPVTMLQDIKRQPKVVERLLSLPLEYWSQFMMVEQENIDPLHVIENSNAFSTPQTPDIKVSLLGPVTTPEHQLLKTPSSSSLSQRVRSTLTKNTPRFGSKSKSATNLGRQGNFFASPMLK

SUMO-activating enzyme [8] = molecular target: T1, SUMO-activating enzyme; assay: SUMOylation inhibitor hit validation, confirmation, SUMOylation inhibitor project, biochemical, AlphaScreen (AID 2018); format: functional
[9] = inhibitors of intracellular T. cruzi replication, confirmation, NIH3T3 host cells, beta-gal luminescence (AID 2044); format: functional, cell-based;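 further: intracellular parasites grown in NIH/3T3 mouse fibroblasts as host cells; luminescent beta-galactosidase reporter signal from transgenic T. cruzi replicating inside host cells; inhibitors lower the luminescence signal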
[10] = molecular target: T3, Sentrin-specific protease 8 (Homo sapiens, UniProt Q96LD8); format: functional
T3 sequence (Q96LD8 whole entry): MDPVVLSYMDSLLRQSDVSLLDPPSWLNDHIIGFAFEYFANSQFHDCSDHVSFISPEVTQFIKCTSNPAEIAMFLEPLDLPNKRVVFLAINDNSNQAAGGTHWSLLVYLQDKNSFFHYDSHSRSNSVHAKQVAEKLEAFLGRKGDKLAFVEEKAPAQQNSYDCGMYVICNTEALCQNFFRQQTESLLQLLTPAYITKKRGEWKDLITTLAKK

[11] = cytotoxicity toward NIH3T3 fibroblasts, dose response, counter-screen, cell-based, ATP luminescence, mouse fibroblasts (AID 2010); format: functional;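 further: cells exposed to compound for about 90 hours before reading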
[12] = molecular target: T3, Sentrin-specific protease 8; format: functional; remark: listed apart in the source
[13] = Luminescence Cell-Based Secondary HTS screen to identify cytotoxic compounds of NIH3T3 cells. [Related pubchem assays: 1885, 1968 ]; format: functional
[14] = Luminescence Cell-Based/Microorganism Confirmation at Dose of Inhibitors of Trypanosoma cruzi Infection. [Related pubchem assays: 1885, 1968 ]; format: functional
[15] = inhibitors of Trypanosoma cruzi host-cell infection, confirmation, beta-gal luminescence, NIH3T3 host cells (AID 2630); format: functional, cell-based; settings: Mus musculus
[16] = inhibitors of firefly luciferase expression or activity, dose response, H4 neuroglioma cells, luminescence (AID 1990); format: functional, cell-based
Hexokinase HKDC1 = molecular target: T4, Hexokinase HKDC1 (Homo sapiens, UniProt Q2TB90); assay: HKDC1 hexokinase inhibitors, dose response, biochemical, W721R variant (AID 504729); format: functional
T4 sequence (Q2TB90 whole entry): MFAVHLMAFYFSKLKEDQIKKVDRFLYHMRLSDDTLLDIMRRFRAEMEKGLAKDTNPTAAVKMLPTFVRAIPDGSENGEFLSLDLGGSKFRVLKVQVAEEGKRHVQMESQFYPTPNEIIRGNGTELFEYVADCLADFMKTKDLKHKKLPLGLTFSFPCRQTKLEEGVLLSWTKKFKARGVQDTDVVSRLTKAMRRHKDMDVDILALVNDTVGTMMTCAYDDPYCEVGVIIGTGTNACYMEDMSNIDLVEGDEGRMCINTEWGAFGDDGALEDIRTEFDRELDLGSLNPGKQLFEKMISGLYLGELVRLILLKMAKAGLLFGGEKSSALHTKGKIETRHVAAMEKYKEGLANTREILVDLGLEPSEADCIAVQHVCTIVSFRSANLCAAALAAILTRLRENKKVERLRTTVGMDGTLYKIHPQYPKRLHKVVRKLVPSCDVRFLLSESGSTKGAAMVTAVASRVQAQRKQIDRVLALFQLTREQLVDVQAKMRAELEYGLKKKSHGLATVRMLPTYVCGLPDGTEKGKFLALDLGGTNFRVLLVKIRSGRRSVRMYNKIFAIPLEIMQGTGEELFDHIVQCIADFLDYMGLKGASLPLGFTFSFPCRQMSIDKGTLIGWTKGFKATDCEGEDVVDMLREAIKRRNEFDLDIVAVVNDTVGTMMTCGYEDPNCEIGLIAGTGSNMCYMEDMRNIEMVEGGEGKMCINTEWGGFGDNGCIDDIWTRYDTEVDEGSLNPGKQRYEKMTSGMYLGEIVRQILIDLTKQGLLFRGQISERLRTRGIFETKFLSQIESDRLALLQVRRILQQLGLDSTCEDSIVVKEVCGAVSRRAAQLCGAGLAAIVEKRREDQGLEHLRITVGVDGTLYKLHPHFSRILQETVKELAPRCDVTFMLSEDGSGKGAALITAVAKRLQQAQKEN

[17] = molecular target: T5, Replicative DNA helicase DnaB (Mycobacterium tuberculosis, UniProt P9WMR3); assay: DnaB intein splicing inhibitors, dose response, biochemical, cell-free fluorescence (AID 449749); format: functional
T5 sequence (P9WMR3 whole entry): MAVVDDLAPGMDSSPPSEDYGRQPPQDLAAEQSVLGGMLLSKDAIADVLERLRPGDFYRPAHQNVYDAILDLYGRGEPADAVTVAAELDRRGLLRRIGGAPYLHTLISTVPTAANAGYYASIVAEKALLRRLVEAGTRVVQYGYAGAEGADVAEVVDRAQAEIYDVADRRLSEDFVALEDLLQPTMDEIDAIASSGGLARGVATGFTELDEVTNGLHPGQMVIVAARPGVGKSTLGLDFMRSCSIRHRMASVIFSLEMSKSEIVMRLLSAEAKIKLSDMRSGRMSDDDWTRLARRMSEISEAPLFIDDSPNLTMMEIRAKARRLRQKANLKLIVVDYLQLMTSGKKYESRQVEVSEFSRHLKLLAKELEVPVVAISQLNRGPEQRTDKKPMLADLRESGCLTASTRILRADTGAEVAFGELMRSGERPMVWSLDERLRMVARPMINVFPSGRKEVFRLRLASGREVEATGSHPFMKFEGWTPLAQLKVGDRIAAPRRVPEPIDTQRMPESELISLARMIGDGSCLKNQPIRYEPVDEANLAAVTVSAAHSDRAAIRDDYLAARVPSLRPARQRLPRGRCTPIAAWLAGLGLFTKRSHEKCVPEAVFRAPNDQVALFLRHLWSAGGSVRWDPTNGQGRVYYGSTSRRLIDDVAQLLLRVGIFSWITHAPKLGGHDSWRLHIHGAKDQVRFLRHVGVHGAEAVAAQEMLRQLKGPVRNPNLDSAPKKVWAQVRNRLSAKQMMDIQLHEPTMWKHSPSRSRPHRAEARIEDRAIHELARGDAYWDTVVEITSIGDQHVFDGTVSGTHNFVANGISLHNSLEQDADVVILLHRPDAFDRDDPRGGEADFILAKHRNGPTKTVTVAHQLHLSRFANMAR

Protein RecA = molecular target: T6, Protein RecA (Mycobacterium tuberculosis, UniProt P9WHJ3); assay: Fluorescence Cell-Free Homogeneous Dose Retest to Identify Inhibitors of RecA-Intein Splicing Activity. [Related pubchem assays (depositor defined):AID2097, AID2223, AID489010, AID492950]; format: functional
T6 sequence (P9WHJ3 whole entry): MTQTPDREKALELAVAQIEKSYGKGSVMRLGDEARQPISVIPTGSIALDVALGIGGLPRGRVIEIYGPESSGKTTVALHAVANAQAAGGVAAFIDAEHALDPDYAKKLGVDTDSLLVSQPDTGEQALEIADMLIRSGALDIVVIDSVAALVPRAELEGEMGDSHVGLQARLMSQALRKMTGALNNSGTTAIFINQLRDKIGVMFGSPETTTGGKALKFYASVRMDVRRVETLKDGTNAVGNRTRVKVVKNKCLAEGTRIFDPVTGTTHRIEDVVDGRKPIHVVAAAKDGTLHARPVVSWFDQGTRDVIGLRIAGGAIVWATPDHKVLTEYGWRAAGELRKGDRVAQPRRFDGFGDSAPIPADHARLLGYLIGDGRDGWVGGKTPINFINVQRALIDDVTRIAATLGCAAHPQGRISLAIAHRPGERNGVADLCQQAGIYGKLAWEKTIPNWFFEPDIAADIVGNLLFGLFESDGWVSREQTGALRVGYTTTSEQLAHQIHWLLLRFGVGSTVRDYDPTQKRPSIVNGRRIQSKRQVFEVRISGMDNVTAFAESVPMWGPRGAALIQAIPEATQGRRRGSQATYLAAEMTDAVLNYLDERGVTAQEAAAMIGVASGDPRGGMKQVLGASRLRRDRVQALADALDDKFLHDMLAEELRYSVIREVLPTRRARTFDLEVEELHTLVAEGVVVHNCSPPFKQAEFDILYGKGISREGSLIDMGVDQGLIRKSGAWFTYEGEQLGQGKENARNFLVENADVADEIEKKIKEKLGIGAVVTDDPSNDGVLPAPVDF

[18] = Luminescence Cell-Based Dose Response HTS to Identify Inhibitors of 5'UTR Stem-Loop Driven Prion Protein mRNA Translation in H4 Neuroglioblastoma Cells. [Related pubchem assays: 1827 (Project Summary), 1813 (Primary HTS)]; format: functional
[19] = inhibitors of SNCA 5'UTR-driven reporter translation, confirmation, H4 neuroglioma cells, luminescence (AID 1988); format: functional, cell-based

## C[C@@H]1CN([C@@H](C)CO)C(=O)c2cccc(NC(=O)Nc3ccccc3)c2O[C@H]1CN(C)S(=O)(=O)c1ccc(Cl)cc1
INS1 [1]
  AC50: 116 µM (active)

## CCC(=O)NC(c1ccc(C)cc1)c1cc(Cl)c2cccnc2c1O (configuration not stated)
Exodeoxyribonuclease V
  IC50: > 119 µM (inactive)
[2]
  IC50: > 119 µM (inactive)
HEK293
  AC50: 12.9 µM (active)
INS1 [3]
  AC50: 1.65 µM (active)

## O=C(O)c1cccc(N2C(=O)/C(=C/c3ccc(SCc4ccc(Cl)cc4)o3)SC2=S)c1
[4]
  IC50: 4.43 µM (active)
[5]
  IC50: 29.9 µM (active)
SUMO-activating enzyme [6]
  IC50: 14.6 µM (active)
[7]
  IC50: 132 µM (active)
SUMO-activating enzyme [8]
  IC50: 1.39 µM (active)

## O=C(CCN1CCN(c2ccccc2)CC1)N/N=C/c1ccc([N+](=O)[O-])o1
[9]
  EC50: < 0.1 µM (active)
cells
  EC50: 0.037 µM (active)
Exodeoxyribonuclease V
  IC50: > 119 µM (inactive)
[2]
  IC50: > 39.5 µM (inactive)
[10]
  IC50: 40 µM (active)
[11]
  EC50: > 60 µM (not active)
[12]
  IC50: 96.9 µM (inactive)

## CSc1ccc(CN2CCCC(CNC(=O)c3ccc(F)cc3)C2)cc1 (configuration not stated)
[9]
  EC50: < 0.1 µM (active)
[13]
  EC50: > 195 µM (not active)
cells
  EC50: 0.12 µM (active)
[11]
  EC50: > 30 µM (not active)
[14]
  EC50: 7.17 µM (active)
[15]
  EC50: 7.17 µM (active)

## CCCCC[C@H](O)/C=C/[C@@H]1[C@@H](C/C=C\CCCC(=O)OC)[C@@H](O)C[C@H]1O
[5]
  IC50: 8.7 µM (active)
[16]
  EC50: > 120 µM (not active)
SUMO-activating enzyme [6]
  IC50: 18.4 µM (active)
Hexokinase HKDC1
  IC50: 9.12 µM (active)
SUMO-activating enzyme [8]
  IC50: 10.5 µM (active)
[17]
  AC50: 16.1 µM (active)
Protein RecA
  EC50: 12.2 µM (active)
[18]
  EC50: > 120 µM (not active)
[19]
  EC50: > 120 µM (not active)

## O=C(Cc1cn(Cc2cccc(Cl)c2)c2ccccc12)N1CCCCCC1
[9]
  EC50: 1.75 µM (active)
[13]
  EC50: > 195 µM (not active)
[11]
  EC50: > 60 µM (not active)
[14]
  EC50: 3.09 µM (active)
[15]
  EC50: 3.09 µM (active)
